Legend:
[1] = biological target: T1, GLP1R (Homo sapiens, UniProt P43220); experiment: β-Arrestin-mediated GLP1R internalization assay (PathHunter engineered U2OS cells); assay type: cell-based; set-up: host or cells: PathHunter engineered U2OS cells; settings: averaged Bmax, percentage of control GLP-1 (7-37), highest concentration tested
Text: A similar assay can also be used to assess the extent of signal attenuation due to GLP-1R internalization (the β-Arrestin Internalization Assay). In this assay, activated GLP1R Internalization cells were engineered to co-express an untagged GLP1R, Enzyme Acceptor (EA) tagged β-Arrestin, and a ProLink™ (PK) tag localized to the endosomes. Activation of the GLP1R induces β-Arrestin recruitment, which leads to internalization of the Receptor/Arrestin-EA complex in PK-tagged endosomes. This forces complementation of the two β-galactosidase enzyme fragments (EA and PK) to form a functional enzyme that hydrolyzes substrate to generate a chemiluminescent signal. These cells have been modified to prevent long term propagation and expansion using a proprietary compound that has no apparent effect on assay performance.
Specifically, PathHunter engineered U2OS cells from the assay kit (Cat #93-0724E3CP0L) were plated at a density of 2000 cells/20 μL/well in a 384-well white/clear bottom plates (Greiner Cat #781098). Frozen cells were quickly thawed and 10 mL of cell plating medium (provided by the kit) was added to thawed cells. Cells were stored in a 37° C. incubator and kept for approximately 48 hours until ready for the assay.
(§1) Reference and test compounds were dissolved in 100% DMSO. 5× concentration of an agonist was prepared in serum free DMEM (Thermo Cat #11965). 5 μL of this solution was added to 20 μL cell medium in assay plate for a final top concentration of 10 μM. Plates were incubated at 37° C. for 180 min.
(§2) Following 180 min incubation, detection reagents were made up by combining 1 part Galacton Star Substrate with 5 parts Emerald II™ Solution, and 19 parts of PathHunter Cell Assay Buffer, respectively. 12.5 μL detection reagent was added to each well. The plates were then incubated at room temperature for 60 min. Plates were then read on Envision for 0.1 sec/well.
(§3) EC50 determinations were made from agonist dose-response curves analyzed with a curve fitting program using a 4-parameter logistic dose response equation.

[2] = biological target: T1, GLP1R; experiment: GLP-1R/β-Arrestin recruitment assay (PathHunter eXpress GLP1R CHO-K1 β-Arrestin GPCR Assay); assay type: cell-based; set-up: host or cells: PathHunter CHO-K1 GLP1R β-Arrestin cells; settings: averaged Bmax, percentage of control GLP-1 (7-37), highest concentration tested
Text: GLP-1R agonist activity with respect to β-arrestin recruitment can be determined with a cell-based functional assay using PathHuntcr eXpress GLP1R CHO-K1 β-Arrestin GPCR Assay kit (DiscovcrX Cat #93-0300E2CP0M).
The PathHunter β-Arrestin GPCR assay technology utilizes a β-galactosidase (β-gal) enzyme that is split into two fragments, the smaller Enzyme Donor (ED) and the larger Enzyme Acceptor (EA). These fragments can be fused to two proteins that may interact with each other, such as EA-β-Arrestin and ED-GLP-1R. The fusions can be stably expressed in a test cell line, such as the PathHunter CHO-K1 GLP1R β-Arrestin cells described below.
Independently, these fragment fusions have no β-gal activity; however, in solution or in a living cell, they can be brought together and complement to form an active β-gal enzyme due to the interaction between the fused proteins, thus generating a chemiluminescent signal in the presence of a suitable β-gal substrate.
In this experiment, PathHunter CHO-K1 GLP1R β-Arrestin cells from the assay kit were plated at a density of 1000 or 2000 cells/20 μl/well in a 384-well white/clear bottom plates (Greiner Cat #781098). Frozen cells were quickly thawed and 10 mL of cell plating medium (provided by the kit) was added to thawed cells. Cells were stored in a 37° C. incubator under 5% CO2 and kept for approximately 48 hours until ready to ran the assay.
as §1, with “Plates were then incubated at” for “Plates were incubated at”, “37° C. under 5% CO2 for 90” for “37° C. for 180”, “CO2 for 90 min.” for “C. for 180 min.”
as §2, with “90” for “180”, “temperature in dark” for “temperature”
as §3
Cells were plated at a density of 1000 or 2000 cells/20 μL/well. Frozen cells were quickly thawed and added to 10 mL of cell plating medium. Cells were stored in a 37° C. incubator under 5% CO2 and left for approximately 48 hours until ready to run the assay.
• 1) Reference agonist compound GLP1 (7-37): dissolved with DMSO to make 1 mM stock solutions, aliquoted and stored at −80° C. • 2) Test compounds (such as the compounds of the invention) came solubilized in 100% DMSO.
Prepare 10× concentration of an agonist in serum free DMEM, and add all solutions into the compound plate. 2.5 μL of this solution was added to 20 μL cell medium in assay plate for a final top concentration of 10 μM. Plates were incubated at 37° C. under 5% CO2 for 30 min. An additional 2.5 μL of Buffer was added to the entire plate for agonist mode and incubated at 37° C. for another 90 min.
Following 90 min incubation, detection reagents were made up as described. 12.5 μL was added to all wells. The plates were then incubated at room temperature in dark for 60 min. Plates were then read on Envision for 0.1 sec/well.
Data analysis: GraphPad Prism 6 was used for establishment of progression curve. EC50S or IC50s were determined by 4-parameter logistic dose response equation.

T1 sequence (P43220 24-463): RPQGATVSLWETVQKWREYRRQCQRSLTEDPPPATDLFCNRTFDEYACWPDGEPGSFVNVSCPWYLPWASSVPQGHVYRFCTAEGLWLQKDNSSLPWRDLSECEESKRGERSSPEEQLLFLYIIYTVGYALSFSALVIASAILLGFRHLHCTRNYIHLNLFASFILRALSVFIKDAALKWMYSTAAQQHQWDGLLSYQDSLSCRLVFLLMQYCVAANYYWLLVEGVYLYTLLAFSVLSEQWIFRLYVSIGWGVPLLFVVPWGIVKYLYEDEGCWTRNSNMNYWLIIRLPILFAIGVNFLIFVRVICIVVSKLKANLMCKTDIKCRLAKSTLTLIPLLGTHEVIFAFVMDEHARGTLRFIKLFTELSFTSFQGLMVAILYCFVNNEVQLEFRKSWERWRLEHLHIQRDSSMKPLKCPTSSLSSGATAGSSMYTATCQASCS

| SMILES | Bmax (POC) [1] [POC] | Bmax (POC) [2] [POC] |
| --- | --- | --- |
| N#Cc1ccc(COc2cncc(C3=CCN(Cc4nc5ccc(C(=O)O)cc5n4C[C@@H]4CCO4)CC3)n2)c(F)c1 [Compound 23, (S)-2-((4-(6-(4-cyano-2-fluorobenzyloxy)pyrazin-2-yl)-5,6-dihydropyridin-1(2H)-yl)methyl)-1-(oxetan-2-ylmethyl)-1 h-benzo[d]imidazole-6-carboxylic acid] | 8.92 ± 3.70 | 18.2 ± 1.51 |
| N#Cc1ccc(COc2cccc(C3=CCN(Cc4nc5ccc(C(=O)O)nc5n4C[C@@H]4CCO4)CC3)n2)c(F)c1 [Compound 225, (S)-2-((6-((4-cyano-2-fluorobenzyl)oxy)-3′,6′-dihydro-[2,4′-bipyridin]-1′(2′H)-yl)methyl)-3-(oxetan-2-ylmethyl)-3H-imidazo[4,5-b]pyridine-5-carboxylic add] | 24.0 ± 6.70 | 32.5 ± 3.55 |
| O=C(O)c1ccc2nc(CN3CC=C(c4ccnc(OCc5ccc(Cl)cc5F)n4)CC3)n(C[C@@H]3CCO3)c2c1 [Compound 35, (S)-2-((4-(2-((4-chloro-2-fluorobenzyl)oxy)pyrimidin-4-yl)-3,6-dihydropyridin-1(2H)-yl)methyl)-1-(oxetan-2-ylmethyl)-1H-benzo[d]imidazole-6-carboxylic add] | 14.3 ± 9.21 | 19.9 ± 4.44 |
| O=C(O)c1ccc2nc(CN3CC=C(c4cncc(OCc5ccc(Cl)cc5F)n4)CC3)n(C[C@@H]3CCO3)c2c1 [Compound 34, (S)-2-((4-(6-(4-chloro-2-fluorobenzyloxy)pyrazin-2-yl)-5,6-dihydropyridin-1(2H)-yl)methyl)-1-(oxetan-2-ylmethyl)-1 h-benzo[d]imidazole-6-carboxylic acid] | 8.88 ± 3.19 | 20.2 ± 1.89 |
| O=C(O)c1ccc2nc(CN3CC=C(c4cccc(OCc5ccc(Cl)cc5F)n4)CC3)n(C[C@@H]3CCO3)c2c1 [Compound 221, (S)-2-((6-((4-chloro-2-fluorobenzyl)oxy)-3′,6′-dihydro-[2,4′-bipyridin]-1′(2′H)-yl)methyl)-1-(oxetan-2-ylmethyl)-1H-benzo[d]imidazole-6-carboxylic acid] | 30.0 ± 6.40 | 35.6 ± 5.38 |
| O=C(O)c1ccc2nc(CN3CC=C(c4ccc(F)c(OCc5ccc(Cl)cc5F)c4)CC3)n(C[C@@H]3CCO3)c2c1F [Compound 238, (S)-2-((4-(3-((4-chloro-2-fluorobenzyl)oxy)-4-fluorophenyl)-3,6-dihydropyridin-1(2H)-yl)methyl)-7-fluoro-1-(oxetan-2-ylmethyl)-1H-benzo[d]imidazole-6-carboxylic acid] | 52.8 ± 1.14 | 55.8 ± 14.1 |
| O=C(O)c1ccc2nc(CN3CC=C(c4ccc(F)c(OCc5ccc(Cl)cc5F)c4)CC3)n(C[C@@H]3CCO3)c2c1 [Compound 29, (S)-2-((4-(3-((4-chloro-2-fluorobenzyl)oxy)-4-fluorophenyl)-3,6-dihydropyridin-1(2H)-yl)methyl)-1-(oxetan-2-ylmethyl)-1 h-benzo[d]imidazole-6-carboxylic acid] | 25.9 ± 1.24 | 36.6 ± 7.77 |
| O=C(O)c1ccc2nc(CN3CC=C(c4cccc(OCc5ccc(Cl)cc5F)c4)CC3)n(C[C@@H]3CCO3)c2n1 [Compound 224, (S)-2-((4-(3-((4-chloro-2-fluorobenzyl)oxy)phenyl)-3,6-dihydropyridin-1(2H)-yl)methyl)-3-(oxetan-2-ylmethyl)-3H-imidazo[4,5-b]pyridine-5-carboxylic acid] | 22.5 ± 1.41 | 33.4 ± 3.78 |
| O=C(O)c1ccc2nc(CN3CCC(c4cncc(OCc5ccc(Cl)cc5F)n4)CC3)n(C[C@@H]3CCO3)c2c1 [Compound 21, (S)-2-((4-(6-(4-chloro-2-fluorobenzyloxy)pyrazin-2-yl)piperidin-1-yl)methyl)-1-(oxetan-2-ylmethyl)-1 h-benzo[d]imidazole-6-carboxylic acid] | 6.64 ± 1.55 | 19.0 ± 0.982 |
| O=C(O)c1ccc2nc(CN3CCC(c4cccc(OCc5ccc(Cl)cc5F)c4)CC3)n(C[C@@H]3CCO3)c2c1 [Compound 239, (S)-2-((4-(3-((4-chloro-2-fluorobenzyl)oxy)phenyl)piperidin-1-yl)methyl)-1-(oxetan-2-ylmethyl)-1H-benzo[d]imidazole-6-carboxylic acid] | 14.1 ± 1.57 | 25.6 ± 5.31 |
| O=C(O)c1ccc2nc(CN3CC=C(c4ccc(F)c(OCc5ccc(Cl)cc5F)c4)CC3)n(C[C@@H]3CCO3)c2n1 [Compound 236, (S)-2-((4-(3-((4-chloro-2-fluorobenzyl)oxy)-4-fluorophenyl)-5,6-dihydropyridin-1(2H)-yl)methyl)-3-(oxetan-2-ylmethyl)-3H-imidazo[4,5-b]pyridine-5-carboxylic acid] | 30.0 | 40.3 ± 4.10 |
| O=C(O)c1ccc2nc(CN3CC=C(c4cccc(OCc5ccc(-c6cccnc6)cc5)n4)CC3)n(C[C@@H]3CCO3)c2c1 [Compound 242, (S)-1-(oxetan-2-ylmethyl)-2-((6-((4-(pyridin-3-yl)benzyl)oxy)-3′,6′-dihydro-[2,4′-bipyridin]-1′(2′H)-yl)methyl)-1H-benzo[d]imidazole-6-carboxylic add] | 15.4 | 22.5 ± 4.32 |
| N#Cc1ccc(COc2nc(C3=CCN(Cc4nc5ccc(C(=O)O)cc5n4C[C@@H]4CCO4)CC3)ccc2F)c(F)c1 [Compound 222, (S)-2-((6-((4-cyano-2-fluorobenzyl)oxy)-5-fluoro-3′,6′-dihydro-[2,4′-bipyridin]-1′(2′H)-yl)methyl)-1-(oxetan-2-ylmethyl)-1H-benzo[d]imidazole-6-carboxylic acid] | 31.4 ± 2.62 | 31.1 ± 4.67 |
| N#Cc1ccc(COc2cncc(C3CCN(Cc4nc5ccc(C(=O)O)cc5n4C[C@@H]4CCO4)CC3)n2)c(F)c1 [Compound 22, (S)-2-((4-(6-(4-cyano-2-fluorobenzyloxy)pyrazin-2-yl)piperidin-1-yl)methyl)-1-(oxetan-2-ylmethyl)-1 h-benzo[d]imidazole-6-carboxylic acid] | 7.40 ± 6.97 | 10.9 ± 0.0317 |
